Converted amounts (≈) assume the structure as drawn.
Legend:
KB = assay: Antitumor activity against human KB cells by MTT assay; assay type: functional, cell-based
CCRF-HSB-2 = assay: Antitumor activity against human CCRF-HSB2 cells by MTT assay; assay type: functional, cell-based

IC50 (KB) [µg/mL]	IC50 (CCRF-HSB-2) [µg/mL]	SMILES
0.61 (≈ 2.12 µM)	1.46 (≈ 5.06 µM)	CSc1nc2n(C)c3c(C)cccc3[n+]([O-])c-2c(=O)n1
11 (≈ 36.1 µM)	9.84 (≈ 32.3 µM)	COc1ccc2c(c1)[n+]([O-])c1c(=O)nc(SC)nc-1n2C
12.5 (≈ 41.1 µM)	10 (≈ 32.9 µM)	COc1ccc2c(c1)n(C)c1nc(SC)nc(=O)c-1[n+]2[O-]
27.7 (≈ 96.1 µM)	17.1 (≈ 59.3 µM)	CSc1nc2n(C)c3ccc(C)cc3[n+]([O-])c-2c(=O)n1
1.44 (≈ 5.25 µM)	1.56 (≈ 5.69 µM)	CSc1nc2n(C)c3ccccc3[n+]([O-])c-2c(=O)n1
1.7 (≈ 5.64 µM)	1.46 (≈ 4.85 µM)	Cc1ccc2c(c1)[n+]([O-])c1c(=O)nc(NCCO)nc-1n2C
10.8 (≈ 35 µM)	6.66 (≈ 21.6 µM)	CSc1nc2n(C)c3ccc(Cl)cc3[n+]([O-])c-2c(=O)n1
30 (≈ 99.2 µM)	14.3 (≈ 47.3 µM)	CSc1nc2n(C)c3cc(C)c(C)cc3[n+]([O-])c-2c(=O)n1
6.93 (≈ 26.9 µM)	1.74 (≈ 6.76 µM)	CNc1nc2n(C)c3ccccc3[n+]([O-])c-2c(=O)n1
8.19 (≈ 28.4 µM)	3.72 (≈ 12.9 µM)	CCn1c2nc(SC)nc(=O)c-2[n+]([O-])c2ccccc21
6.2 (≈ 22.6 µM)	5.1 (≈ 18.6 µM)	COc1ccc2c(c1)[n+]([O-])c1c(=O)[nH]c(=O)nc-1n2C
46.3 (≈ 153 µM)	34.7 (≈ 115 µM)	CCn1c2nc(SC)nc(=O)c-2[n+]([O-])c2cc(C)ccc21

The remaining lines, values behind:

SMILES	IC50 (KB) [µg/mL]	IC50 (CCRF-HSB-2) [µg/mL]
CSc1nc2nc3ccccc3cc2c(=O)[nH]1	44.1 (≈ 181 µM)	23.2 (≈ 95.4 µM)
CNc1nc2n(C)c3ccccc3cc-2c(=O)n1	14.5 (≈ 60.3 µM)	2.7 (≈ 11.2 µM)
CCn1c2nc(=O)[nH]c(=O)c-2nc2ccccc21	1.89 (≈ 7.8 µM)	1.57 (≈ 6.48 µM)
CCn1c(SC)nc2nc3c(C)cc(C)cc3[n+]([O-])c2c1=O	10 (≈ 31.6 µM)	5.9 (≈ 18.6 µM)
CSc1nc2nc3ccccc3[n+]([O-])c2c(=O)n1C	9.31 (≈ 33.9 µM)	8.63 (≈ 31.5 µM)
CN(C)c1nc2nc3ccccc3nc2c(=O)[nH]1	63.1 (≈ 262 µM)	51.2 (≈ 212 µM)
COc1ccc2nc3nc(N4CCOCC4)[nH]c(=O)c3nc2c1	71.7 (≈ 229 µM)	41.4 (≈ 132 µM)
CCOC(=O)Cn1c(SC)nc2nc3ccccc3[n+]([O-])c2c1=O	54.8 (≈ 158 µM)	34.2 (≈ 98.7 µM)
CSc1nc2nc3ccc(C)cc3[n+]([O-])c2c(=O)[nH]1	5.8 (≈ 21.1 µM)	5.86 (≈ 21.4 µM)
CSc1nc2nc3c(C)cc(C)cc3[n+]([O-])c2c(=O)[nH]1	11.8 (≈ 40.9 µM)	6.29 (≈ 21.8 µM)
COc1ccc2nc3nc(SC)[nH]c(=O)c3[n+]([O-])c2c1	5.35 (≈ 18.4 µM)	4.11 (≈ 14.2 µM)
CCn1c2nc(NCC(C)C)nc(=O)c-2[n+]([O-])c2ccccc21	8.1 (≈ 25.8 µM)	6 (≈ 19.1 µM)
Cn1c2nc(=O)[nH]c(=O)c-2nc2ccccc21	2.1 (≈ 9.2 µM)	1.8 (≈ 7.89 µM)
CSc1nc2nc3ccccc3[n+]([O-])c2c(=O)[nH]1	6.76 (≈ 26 µM)	6.77 (≈ 26 µM)
Cc1ccc2c(c1)[n+]([O-])c1c(=O)nc(NC3CCCCC3)nc-1n2C	33.7 (≈ 99.3 µM)	7.1 (≈ 20.9 µM)
COc1ccc2c(c1)[n+]([O-])c1c(=O)nc(N3CCCCC3)nc-1n2C	27.6 (≈ 80.9 µM)	6.18 (≈ 18.1 µM)
CSc1nc2nc3ccc(C)cc3[n+]([O-])c2c(=O)n1C	13.4 (≈ 46.5 µM)	7.74 (≈ 26.8 µM)
CSc1nc2nc3c(C)cc(C)cc3[n+]([O-])c2c(=O)n1C	14.2 (≈ 47 µM)	8.96 (≈ 29.6 µM)
Nc1ccn([C@@H]2O[C@H](CO)[C@@H](O)[C@@H]2O)c(=O)n1 [CYTARABINE]	0.23 (≈ 0.946 µM)	0.047 (≈ 0.193 µM)

Source: ChEMBL document CHEMBL1143144, “Antitumor studies. Part 4: Design, synthesis, antitumor activity, and molecular docking study of novel 2-substituted 2-deoxoflavin-5-oxides, 2-deoxoalloxazine-5-oxides, and their 5-deaza analogs” (Bioorg Med Chem, 2008)
